Laboratory results: ChEMBL document CHEMBL5634148, “Synthesis and evaluation of novel pleuromutilin derivatives targeting the 50S ribosomal subunit for antibacterial ability” (Eur J Med Chem, 2023)
In brackets after ≈: the same amount, converted by molar mass. Activity calls are given as the source filed them. The rule behind the calls is not given here.

Key:
[1] = Toxicity in Wistar rat assessed as absolute spleen weight at 2000 mg/kg, po measured after 14 days (reference value: 0.61 +/- 0.05 g); format: organism-based; details: in vivo, 336 h, time 14 day
[2] = Toxicity in Wistar rat assessed as relative spleen weight at 2000 mg/kg, po measured after 14 days (reference value: 0.20 +/- 0.07 %); format: organism-based; details: in vivo, 336 h, time 14 day
Pasteurella multocida = assay: Antibacterial activity against Pasteurella multocida CVCC 1659 assessed as bacterial growth inhibition incubated for 18 to 24 hrs by NCCLS based assay; format: functional; details: time 18-24 hrs
[3] = Toxicity in Wistar rat assessed as relative kidneys weight at 2000 mg/kg, po measured after 14 days (reference value: 0.91 +/- 0.18 %); format: organism-based; details: in vivo, 336 h, time 14 day
Staphylococcus aureus [4] = assay: Antibacterial activity against methicillin-resistant Staphylococcus aureus infected in neutropenic Balb/c mouse model assessed as reduction in bacterial load in kidney at 40 mg/kg, iv measured after 5 days; format: functional, organism-based; details: time 5.0 day
[5] = Toxicity in Wistar rat assessed as degeneration of alveolar epithelial cells in lungs at 2000 mg/kg, po measured for 14 days by H and E staining based analysis; format: organism-based; details: in vivo, 336 h, time 14 day
[6] = Toxicity in Wistar rat assessed as proliferation of oval cells in liver at 2000 mg/kg, po measured for 14 days by H and E staining based analysis; format: organism-based; details: in vivo, 336 h, time 14 day
Streptococcus agalactiae = assay: Antibacterial activity against Streptococcus agalactiae assessed as bacterial growth inhibition incubated for 18 to 24 hrs by NCCLS based assay; format: functional; details: time 18-24 hrs
[7] = Toxicity in Wistar rat assessed as absolute lungs weight at 2000 mg/kg, po measured after 14 days (reference value: 1.38 +/- 0.17 g); format: organism-based; details: in vivo, 336 h, time 14 day
[8] = test system: Staphylococcus epidermidis; assay: Antibacterial activity against methicillin-resistant Staphylococcus epidermidis ATCC 51625 assessed as bacterial growth inhibition incubated for 18 to 24 hrs by NCCLS based assay; format: functional; details: time 18-24 hrs
[9] = Toxicity in Wistar rat assessed as water consumption at 2000 mg/kg, po measured for 14 days; format: organism-based; details: in vivo, 336 h, time 14 day
Staphylococcus aureus [10] = assay: Antibacterial activity against methicillin-resistant Staphylococcus aureus infected in neutropenic Balb/c mouse model assessed as reduction in bacterial load in lungs at 15 mg/kg, iv measured after 5 days; format: functional; details: time 5 day

Which Activity [1] does the source give for `C=C[C@]1(C)C[C@@H](OC(=O)CSc2ncnc(N(C)C)n2)[C@]2(C)[C@H](C)CC[C@]3(CCC(=O)[C@H]32)[C@@H](C)[C@@H]1O` here?
Its Activity is 0.43 g.

What about the Activity [2] of the same compound?
The Activity was 0.26%.

What about the MIC (Pasteurella multocida) of the same compound?
The MIC was no less than 64 µg/mL.

What about the Activity [3] of the same compound?
Its Activity is 0.74%.

What about the Activity (Staphylococcus aureus [4]) of the same compound?
Its Activity is “Active”.

And the Activity [5]?
The Activity was “Toxic”.

And the Activity [6]?
The Activity was “Toxic”.

And the MIC (Streptococcus agalactiae)?
Its MIC is 0.063 µg/mL (≈ 0.122 µM).

What about the Activity [7] of the same compound?
The Activity was 1.21 g.

What about the MIC [8] of the same compound?
Its MIC is 0.125 µg/mL (≈ 0.242 µM).

And the Activity [9]?
The Activity was “Toxic”.

What about the Activity (Staphylococcus aureus [10]) of the same compound?
The Activity was 1.82 log10CFU/ml.
